# Values of other authors as cited in patent US6558656B2, “Oral and topical compositions and methods related thereto in the treatment of acne” (priority 2000, dated 2003).
# Read-outs that look alike come from different tables or passages of the source. Where no end group is shown, it is not given here.
# How the values were obtained:
# [1] = test system: acne
# [2] = test system: Newcastle disease virus; details: mice infected with the Newcastle disease virus
# [3] = test system: C. albicans, Listeria monocytogenes, Pseudomonas aeruginosa, and Serratia marescens; details: 5-fluorouracil (5FU)- or morphine-immunosuppressed mice, injection
# [4] = test system: Candida albicans; details: mice, injection
# [5] = test system: BCO, Candida, or Cryptococcus; details: immunosuppressed mice infected with BCO
molecule,measurement,setting,value
CC1=C(/C=C/C(C)=C/C=C/C(C)=C\C(=O)O)C(C)(C)CCC1 [isotretinoin],sebum production,[1]; administered orally,decreasing sebum production
same,side effects,"[1]; in vivo, po",potential to induce sever birth defects
same,effectiveness in acne,[1]; oral administration,proven effective in the vast majority of cases
[Zn] [Zinc],effectiveness in acne,[1]; dosage levels of 100-300 mg per day,moderately effective
CC(C)(CO)[C@@H](O)C(=O)NCCC(=O)O [Pantothenic acid],effectiveness in acne,[1]; dosage level of 10 grams per day,effective
"CC1=C(/C=C/C(C)=C/C=C/C(C)=C/CO)C(C)(C)CCC1 [micellized Vitamin A, Vitamin A]",toxicity,[1]; in vivo,known toxicity
same,effectiveness in acne,[1]; very high doses,moderately effective
"thymosin α1 (SDAAVDTSSEITTKDLKEKKEVVEEAEN; not fully specified (N-terminus); ends and bridges not checked; UniProt P06454 2-29, looked up) [Tα1, an immunomodulatory peptide of 28 amino acids]",amount of interferon (IFN) produced,[2],significant rise
same,protection against opportunistic infections,[3],protect
same,resistance to infection with Candida albicans,[4],increased resistance
same,survival rate,[5],increased survival rate
